Results: ChEMBL document CHEMBL1122718, “Benzylamines: synthesis and evaluation of antimycobacterial properties” (1984)

Columns and labels:
[1] = tested on: Mycobacterium tuberculosis; test: Compounds were evaluated for the minimum inhibitory concentration (MIC) Mycobacterium tuberculosis H 37 Rv (INH resistant); format: functional
[2] = tested on: Mycobacterium tuberculosis; test: Compounds were evaluated for the minimum inhibitory concentration (MIC) Mycobacterium tuberculosis H 37 Rv (thiosemicarbazone resistant); format: functional

Compound: CCCCNCc1cccc(F)c1.Cl
- MIC [1]: 8 µg/mL
- MIC [2]: 32 µg/mL
